Results from patent US20240150325A1, “NOVEL COMPOUND AS PROTEIN KINASE INHIBITORS” (LG CHEM, LTD., priority 2021, published 2024).

Assays:
MET = MET (Homo sapiens, UniProt P08581); assay: Evaluation of inhibitory activity to MET; type: biochemical
Excerpt: (§1) Experimental Example 1. Evaluation of Inhibitory Activity to RON and MET

RON = RON (Homo sapiens, UniProt Q04912); assay: Evaluation of inhibitory activity to RON; type: biochemical
Excerpt: as §1

Chain of MET (P08581 25-1390): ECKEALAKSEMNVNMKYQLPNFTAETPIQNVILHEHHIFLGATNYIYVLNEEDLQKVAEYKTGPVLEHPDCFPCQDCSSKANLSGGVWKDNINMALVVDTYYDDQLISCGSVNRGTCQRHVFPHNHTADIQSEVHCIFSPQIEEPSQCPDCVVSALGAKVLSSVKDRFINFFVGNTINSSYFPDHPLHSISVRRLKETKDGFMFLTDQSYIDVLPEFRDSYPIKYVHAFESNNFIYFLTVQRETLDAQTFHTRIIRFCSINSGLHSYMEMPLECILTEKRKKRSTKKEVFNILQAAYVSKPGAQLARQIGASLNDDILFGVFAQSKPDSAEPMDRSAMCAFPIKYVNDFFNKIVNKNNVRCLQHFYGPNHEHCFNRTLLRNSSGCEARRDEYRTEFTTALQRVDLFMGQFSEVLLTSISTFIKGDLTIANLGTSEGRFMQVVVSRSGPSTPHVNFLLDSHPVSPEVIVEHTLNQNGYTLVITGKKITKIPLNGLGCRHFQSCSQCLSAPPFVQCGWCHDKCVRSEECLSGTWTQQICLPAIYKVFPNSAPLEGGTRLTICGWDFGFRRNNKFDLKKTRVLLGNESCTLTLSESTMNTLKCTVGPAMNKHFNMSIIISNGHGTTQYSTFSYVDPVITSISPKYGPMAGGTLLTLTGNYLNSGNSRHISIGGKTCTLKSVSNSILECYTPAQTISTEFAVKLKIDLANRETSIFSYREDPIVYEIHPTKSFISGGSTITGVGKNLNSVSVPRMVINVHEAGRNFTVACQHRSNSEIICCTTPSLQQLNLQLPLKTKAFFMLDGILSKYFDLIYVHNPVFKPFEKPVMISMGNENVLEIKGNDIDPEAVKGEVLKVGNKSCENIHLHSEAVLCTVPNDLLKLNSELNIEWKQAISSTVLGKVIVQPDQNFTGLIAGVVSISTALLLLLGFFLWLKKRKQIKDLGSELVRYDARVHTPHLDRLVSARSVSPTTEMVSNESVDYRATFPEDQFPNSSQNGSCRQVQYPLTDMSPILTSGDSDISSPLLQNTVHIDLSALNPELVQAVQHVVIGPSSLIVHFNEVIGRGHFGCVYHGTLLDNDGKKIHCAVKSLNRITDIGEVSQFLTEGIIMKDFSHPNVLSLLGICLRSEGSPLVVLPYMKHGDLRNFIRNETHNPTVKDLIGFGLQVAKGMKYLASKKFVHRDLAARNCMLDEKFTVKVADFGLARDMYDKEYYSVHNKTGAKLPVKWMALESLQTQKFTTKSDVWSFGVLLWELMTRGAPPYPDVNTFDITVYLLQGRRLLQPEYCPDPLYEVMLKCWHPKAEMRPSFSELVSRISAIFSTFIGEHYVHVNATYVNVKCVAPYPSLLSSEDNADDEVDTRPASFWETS
Chain of RON (Q04912 25-1400): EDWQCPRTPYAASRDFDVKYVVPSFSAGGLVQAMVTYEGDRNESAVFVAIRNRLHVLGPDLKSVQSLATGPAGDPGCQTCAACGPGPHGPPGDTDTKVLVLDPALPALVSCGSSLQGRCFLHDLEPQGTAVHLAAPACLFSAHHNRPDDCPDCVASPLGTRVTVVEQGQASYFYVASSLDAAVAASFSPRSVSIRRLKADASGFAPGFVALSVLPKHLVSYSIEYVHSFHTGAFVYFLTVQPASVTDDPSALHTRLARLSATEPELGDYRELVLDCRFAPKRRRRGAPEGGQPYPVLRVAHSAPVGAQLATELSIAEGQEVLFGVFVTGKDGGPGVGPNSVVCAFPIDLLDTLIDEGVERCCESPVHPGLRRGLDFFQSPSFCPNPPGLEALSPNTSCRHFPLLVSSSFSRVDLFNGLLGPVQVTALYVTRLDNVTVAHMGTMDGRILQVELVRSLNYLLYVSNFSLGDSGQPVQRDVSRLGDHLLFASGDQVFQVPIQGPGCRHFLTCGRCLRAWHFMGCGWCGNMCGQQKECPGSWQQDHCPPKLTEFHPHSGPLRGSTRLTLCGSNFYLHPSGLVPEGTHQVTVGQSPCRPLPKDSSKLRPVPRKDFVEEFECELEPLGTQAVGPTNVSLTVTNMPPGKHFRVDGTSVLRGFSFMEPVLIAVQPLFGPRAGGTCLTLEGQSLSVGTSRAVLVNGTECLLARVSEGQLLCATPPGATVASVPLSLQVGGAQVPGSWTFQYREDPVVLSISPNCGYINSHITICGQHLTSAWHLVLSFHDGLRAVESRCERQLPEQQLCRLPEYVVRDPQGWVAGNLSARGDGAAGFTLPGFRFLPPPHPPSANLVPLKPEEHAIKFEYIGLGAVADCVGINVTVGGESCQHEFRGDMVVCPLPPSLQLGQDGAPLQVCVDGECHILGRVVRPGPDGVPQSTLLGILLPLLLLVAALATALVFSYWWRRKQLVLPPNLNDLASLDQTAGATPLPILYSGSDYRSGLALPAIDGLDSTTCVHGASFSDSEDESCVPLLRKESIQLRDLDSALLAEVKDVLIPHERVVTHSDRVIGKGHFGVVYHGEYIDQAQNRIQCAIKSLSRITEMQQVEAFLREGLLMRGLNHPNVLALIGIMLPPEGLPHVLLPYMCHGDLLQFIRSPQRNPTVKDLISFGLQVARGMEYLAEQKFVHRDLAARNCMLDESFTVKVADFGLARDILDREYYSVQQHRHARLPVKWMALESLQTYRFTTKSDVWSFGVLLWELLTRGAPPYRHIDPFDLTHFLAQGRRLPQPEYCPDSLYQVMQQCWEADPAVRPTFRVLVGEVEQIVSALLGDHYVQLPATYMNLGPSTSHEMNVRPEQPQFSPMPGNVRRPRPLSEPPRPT

Compound	IC50 (MET)	IC50 (RON)
Nc1nccc(-c2cc(Oc3ccc(NC(=O)c4cc(C5CC5)cn(-c5ccc(F)cc5)c4=O)cc3F)ccc2O)n1 [Example 48, N-(4-(3-(2-aminopyrimidin-4-yl)-4-hydroxyphenoxy)-3-fluorophenyl)-5-cyclopropyl-1-(4-fluorophenyl)-2-oxo-1,2-dihydropyridin-3-carboxamide]	64 nM	23 nM
Nc1nccc(-c2cc(Oc3ccc(NC(=O)c4ccc(C(F)(F)F)n(-c5ccc(F)cc5)c4=O)cc3F)ccc2O)n1 [Example 49, N-(4-(3-(2-aminopyrimidin-4-yl)-4-hydroxyphenoxy)-3-fluorophenyl)-1-(4-fluorophenyl)-2-oxo-6-(trifluoromethyl)-1,2-dihydropyridin-3-carboxamide]	67 nM	163 nM
Nc1nccc(-c2cc(Oc3ccc(NC(=O)c4ccc(CO)n(-c5ccc(F)cc5)c4=O)cc3F)ccc2O)n1 [Example 50, N-(4-(3-(2-aminopyrimidin-4-yl)-4-hydroxyphenoxy)-3-fluorophenyl)-1-(4-fluorophenyl)-6-(hydroxymethyl)-2-oxo-1,2-dihydropyridin-3-carboxamide]	12 nM	133 nM
Cc1c(C(=O)Nc2ccc(Oc3ccc(O)c(-c4ccnc(N)n4)c3)c(F)c2)c(=O)n(-c2ccccc2)n1CC(C)(C)O [Example 52, N-(4-(3-(2-aminopyrimidin-4-yl)-4-hydroxyphenoxy)-3-fluorophenyl)-1-(2-hydroxy-2-methylpropyl)-5-methyl-3-oxo-2-phenyl-2,3-dihydro-1H-pyrazol-4-carboxamide]	115 nM	876 nM
CCOc1ccn(-c2ccc(F)cc2)c(=O)c1C(=O)Nc1ccc(Oc2ccc(O)c(-c3ccncn3)c2)c(F)c1 [Example 54, 4-Ethoxy-N-(3-fluoro-4-(4-hydroxy-3-(pyrimidin-4-yl)phenoxy)phenyl)-1-(4-fluorophenyl)-2-oxo-1,2-dihydropyridin-3-carboxamide]	67 nM	351 nM
O=C(Nc1ccc(F)cc1)C1(C(=O)Nc2ccc(Oc3ccc(O)c(-c4ccncn4)c3)c(F)c2)CC1 [Example 56, N-(3-fluoro-4-(4-hydroxy-3-(pyrimidin-4-yl)phenoxy)phenyl)-N-(4-fluorophenyl)cyclopropan-1,1-dicarboxamide]	281 nM	3350 nM
CCOc1ccn(-c2ccc(F)cc2)c(=O)c1C(=O)Nc1ccc(Oc2ccc(O)c(-c3cc[nH]n3)c2)c(F)c1 [Example 57, 4-Ethoxy-N-(3-fluoro-4-(4-hydroxy-3-(1H-pyrazol-3-yl)phenoxy)phenyl)-1-(4-fluorophenyl)-2-oxo-1,2-dihydropyridin-3-carboxamide]	160 nM	4480 nM
Cc1ccc(C(=O)Nc2ccc(Oc3ccc(O)c(-c4cc[nH]n4)c3)c(F)c2)c(=O)n1-c1ccc(F)cc1 [Example 58, N-(3-Fluoro-4-(4-hydroxy-3-(1H-pyrazol-3-yl)phenoxy)phenyl)-1-(4-fluorophenyl)-6-methyl-2-oxo-1,2-dihydropyridin-3-carboxamide]	99 nM	1450 nM
